Experimental data as given in patent US6458831B1, “Use of two plant phenols in the treatment of arteriosclerosis” (Council of Scientific and Industrial Research, priority 2000, dated 2002).

Legend:
[1] = In vitro DPPH free radical scavenging antioxidant potency; settings: Tris-HCl buffer pH 7.4, 45 minutes in dark, absorbency at 517 nm, references probucol and α-tocopherol
Method: In vitro evaluation of free radical scavenging antioxidant potency:
Antioxidant activity of the compounds ((−)-Matairesinol and (−)-wikstromol) were tested for their capacity/potency to scavenger most widely used free radical 2,2-diphenyl-1-[…] radical (DPPH). The well-accepted and tested probucol and α-tocopherol were taken as reference compounds. 1 mg/ml DMSO concentration of the compounds [(−)-Matairesinol and (−)-wikstromol] were prepared and subsequently, serially diluted to lower concentrations with DMSO […] of test compounds were reconstituted to 1 ml in Tris-HCl buffer (pH 7.4) equal volume of 500 μm of DPPH radical dissolved in ethanol was reacted with this. After incubation for 45 minutes in dark, the absorbency at 517 nm was recorded. Radical with no compound was taken as control for calculation of % radical scavenging activity. All the readings were recorded in triplicate.

[2] = Effectiveness on administration at 250 mg/kg of body weight; assay type: in vivo; settings: dosage of 250 mg/kg of body weight
CAMP phosphodiesterase = settings: cited from earlier work
[3] = target: T1, human sex hormone-binding globulin (SHBG) (Homo sapiens, UniProt P04278); settings: cited from earlier work
T1 sequence (P04278 30-402): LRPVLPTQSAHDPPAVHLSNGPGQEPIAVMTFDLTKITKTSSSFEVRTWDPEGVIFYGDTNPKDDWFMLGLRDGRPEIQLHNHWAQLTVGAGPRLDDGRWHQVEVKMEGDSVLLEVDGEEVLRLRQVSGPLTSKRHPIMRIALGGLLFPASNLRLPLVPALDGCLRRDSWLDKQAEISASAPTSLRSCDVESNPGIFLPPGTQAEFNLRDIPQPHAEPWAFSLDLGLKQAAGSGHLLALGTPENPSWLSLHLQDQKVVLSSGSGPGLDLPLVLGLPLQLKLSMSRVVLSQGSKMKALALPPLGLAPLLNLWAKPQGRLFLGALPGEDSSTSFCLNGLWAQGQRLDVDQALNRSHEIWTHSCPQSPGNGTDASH

[4] = tested on: p-388 lymphocyte leukemia; settings: cited from earlier work
HIV = settings: cited from earlier work

COc1cc(C[C@H]2COC(=O)[C@@H]2Cc2ccc(O)c(OC)c2)ccc1O [(−)-Matairesinol, 4,4^1-dihydroxy-3, 3^1-dimethoxylignan-9, 9^1-olide]
antioxidant/radical scavenging potency compared with reference standards [1]: more potent antioxidant/radical scavenging potency than reference standards | effectiveness when administered [2]: highly effective | CAMP phosphodiesterase inhibition activity (CAMP phosphodiesterase): exhibits CAMP phosphodiesterase inhibition activity | binding of H-labeled 5α-dihydrotestosterone (DHT) to human SHBG [3]: reduce the binding

COc1cc(C[C@@H]2COC(=O)[C@@]2(O)Cc2ccc(O)c(OC)c2)ccc1O [(−)-wikstromol, 4,4^1,8-trihydroxy-3, 3^1-dimethoxyliganan-9, 9^1-olide]
antioxidant/radical scavenging potency compared with reference standards [1]: more potent antioxidant/radical scavenging potency than reference standards | effectiveness when administered [2]: highly effective | activity against p-388 lymphocyte leukemia [4]: active against p-388 lymphocyte leukemia | anti-HIV activity (HIV): anti-HIV activity
